In general, IC50 refers to the concentration at which inhibition is half-maximal.

Read-outs that look alike come from different tables or passages of the source.

This test deals with human G2 acute lymphoblastic leukemia (ALL) cells. Nature of the test: Flow cytometry cell-based assay: inhibition of soluble VCAM-1 binding to G2 ALL cells. The note with it: for IC50: inhibition of sVCAM-1 binding to human G2 ALL cells, read-out: sVCAM-1 IC50; for inhibition of sVCAM-1 binding compared with other inhibitors / inhibition of sVCAM-1 binding compared with Firategrast: flow cytometry; for inhibition of sVCAM-1 binding compared with other inhibitors: FIG. 6, 7, 10, 11; for inhibition of sVCAM-1 binding compared with Firategrast: FIG. 5, 8, 9, 12. The method, then: (§1) Compounds were tested for their ability to inhibit the binding of soluble VCAM-1 to human G2 acute lymphoblastic leukemia (ALL) cells. Briefly, G2 ALL cells are pre-incubated with increasing concentrations (0.001 to 1000 nM) of compounds for 30 minutes. Soluble VCAM/Fc chimera protein (R&D systems) is then added to the mixture and the cells incubated for an additional 30 minutes. Afterwards, cells are washed and VCAM-1 is detected using PE-conjugated secondary mAbs. In each experiment, an aliquot of cells will be stained with isotype control mAbs to serve as a negative control. The percentage of VCAM-1 binding cells was then determined by flow cytometry.
as §1, with “(ALL) cells or 5TGMI myeloma” for “(ALL)”, “ALL or 5TGMI” for “ALL”
Background: In flow cytometry, cells or beads pass a laser one at a time.

In the case of `COc1cc(CO)cc(OC)c1-c1ccc(C[C@H](NC(=O)c2c(Cl)cc(C(=O)O)cc2Cl)C(=O)O)cc1` [Cmpd 22, 4-{[(1S)-1-carboxy-2-{4-[4-(hydroxymethyl)-2,6-dimethoxyphenyl]phenyl}ethyl]carbamoyl}-3,5-dichlorobenzoic acid], the IC50 (Table 12) was 0.47 nM.

For the compound `COc1cc(CF)cc(OC)c1-c1ccc(C[C@H](NC(=O)c2c(Cl)cc(C(=O)O)cc2Cl)C(=O)O)cc1` [Compound 1224, 4-{[(1S)-1-carboxy-2-{4-[4-(fluoromethyl)-2,6-dimethoxyphenyl]phenyl}ethyl]carbamoyl}-3,5-dichlorobenzoic acid], the “inhibition of sVCAM-1 binding compared with other inhibitors” value is reported as “more potent inhibitors than 823”. For the same compound, the IC50 (Table 8) came out at 1.57 nM.

`CCOCc1cc(OC)c(-c2ccc(C[C@H](NC(=O)[C@]3(C)CCCN3S(=O)(=O)c3ccccc3)C(=O)O)cc2)c(OC)c1` [Compound 1609, (S)-3-(4′-(ethoxymethyl)-2′,6′-dimethoxy-[1,1′-biphenyl]-4-yl)-2-((S)-2-methyl-1-(phenylsulfonyl)pyrrolidine-2-carboxamido)propanoic acid]: the “inhibition of sVCAM-1 binding compared with Firategrast” value (“inhibition … compared with Firategrast” below) was “significantly more potent than Firategrast”. Where the note is “Table 8”, the IC50 turned out to be 11.7 nM.

`COc1cc(C(C)(C)O)cc(OC)c1-c1ccc(C[C@H](NC(=O)c2c(Cl)cc(C(=O)O)cc2Cl)C(=O)O)cc1` [Cmpd 25, 4-{[(1S)-1-carboxy-2-{4-[4-(2-hydroxypropan-2-yl)-2,6-dimethoxyphenyl]phenyl}ethyl]carbamoyl}-3,5-dichlorobenzoic acid]: where the note is “Table 12”, the IC50 turned out to be 70 nM.

For `CCOCc1cc(OC)c(-c2ccc(C[C@H](NC(=O)c3c(Cl)cc(C(=O)O)cc3Cl)C(=O)O)cc2)c(OC)c1` [Cmpd 23, 4-{[(1S)-1-carboxy-2-{4-[4-(ethoxymethyl)-2,6-dimethoxyphenyl]phenyl}ethyl]carbamoyl}-3,5-dichlorobenzoic acid], the IC50 (Table 12) was found to be 0.58 nM.

On to `COc1cc(C(=O)O)cc(OC)c1-c1ccc(C[C@H](NC(=O)c2c(Cl)cc(C(=O)O)cc2Cl)C(=O)O)cc1` [Cmpd 24, 4-{4-[(2S)-2-carboxy-2-[(4-carboxy-2,6-dichlorophenyl)formamido]ethyl]phenyl}-3,5-dimethoxybenzoic acid], for which the IC50 (Table 12) came out at 218 nM.

Regarding `COCCOCc1cc(OC)c(-c2ccc(C[C@H](NC(=O)[C@@H]3CCCN3S(=O)(=O)c3ccc(C(=O)O)cc3)C(=O)O)cc2)c(OC)c1` [Compound 1747, 4-(((S)-2-(((S)-1-carboxy-2-(2′,6′-dimethoxy-4′-((2-methoxyethoxy)methyl)-[1,1′-biphenyl]-4-yl)ethyl)carbamoyl)pyrrolidin-1-yl)sulfonyl)benzoic acid], the IC50 (Table 8) came to 7.58 nM.

Take `CCCCCC(=O)OCc1cc(OC)c(-c2ccc(C[C@H](NC(=O)c3c(Cl)cc(C(=O)O)cc3Cl)C(=O)O)cc2)c(OC)c1` [Compound 1571, (S)-4-((1-carboxy-2-(4′-((hexanoyloxy)methyl)-2′,6′-dimethoxy-[1,1′-biphenyl]-4-yl)ethyl)carbamoyl)-3,5-dichlorobenzoic acid]: the “inhibition … compared with Firategrast” value is given as “greater inhibition of sVCAM-1 binding than did Firategrast”. Also, under “Table 8”, the IC50 worked out at 4.43 nM.

In the case of `COc1cc(CO)cc(OC)c1-c1ccc(C[C@H](NC(=O)c2c(Cl)cc(C(=O)O)cc2Cl)C(=O)O)cc1` [Compound 1220, 4-{[(1S)-1-carboxy-2-{4-[4-(hydroxymethyl)-2,6-dimethoxyphenyl]phenyl}ethyl]carbamoyl}-3,5-dichlorobenzoic acid], the “inhibition of sVCAM-1 binding compared with other inhibitors” value was “more potent inhibitors than 823”. Further, the IC50 (Table 8) is 0.47 nM.

Consider `COc1cc(C(N)=O)cc(OC)c1-c1ccc(C[C@H](NC(=O)c2c(Cl)cc(C(=O)O)cc2Cl)C(=O)O)cc1` [Compound 1219, 4-{[(1S)-2-[4-(4-carbamoyl-2,6-dimethoxyphenyl)phenyl]-1-carboxyethyl]carbamoyl}-3,5-dichlorobenzoic acid], for which the IC50 (Table 8) was found to be 72 nM.

Regarding `COc1cc(C(=O)O)cc(OC)c1-c1ccc(C[C@H](NC(=O)c2c(Cl)cc(C(=O)O)cc2Cl)C(=O)O)cc1` [Compound 1222, 4-{4-[(2S)-2-carboxy-2-[(4-carboxy-2,6-dichlorophenyl)formamido]ethyl]phenyl}-3,5-dimethoxybenzoic acid], where the note is “Table 8”, the IC50 came to 218 nM.

As for `COc1cccc(OC)c1-c1ccc(C[C@H](NC(=O)C2(c3ccccn3)CCCC2)C(=O)O)cc1` [Compound 825], the IC50 (Table 10) was 48 nM.

`CCOCc1cc(OC)c(-c2ccc(C[C@H](NC(=O)[C@]3(C)CCCN3S(=O)(=O)c3cc(Cl)cc(Cl)c3)C(=O)O)cc2)c(OC)c1` [Cmpd 33, (S)-2-((S)-1-((3,5-dichlorophenyl)sulfonyl)-2-methylpyrrolidine-2-carboxamido)-3-(4′-(ethoxymethyl)-2′,6′-dimethoxy-[1,1′-biphenyl]-4-yl)propanoic acid]: the IC50 (Table 12) is 2.47 nM.

Take `CCOCc1cc(OC)c(-c2ccc(C[C@H](NC(=O)[C@]3(C)CCCN3S(=O)(=O)c3cc(Cl)cc(Cl)c3)C(=O)O)cc2)c(OC)c1` [Compound 1608, (S)-2-((S)-1-((3,5-dichlorophenyl)sulfonyl)-2-methylpyrrolidine-2-carboxamido)-3-(4′-(ethoxymethyl)-2′,6′-dimethoxy-[1,1′-biphenyl]-4-yl)propanoic acid]: the “inhibition … compared with Firategrast” value was “significantly more potent than Firategrast”. Further, under “Table 8”, the IC50 was 2.47 nM.

Turning to `COc1cc(C(C)(C)O)cc(OC)c1-c1ccc(C[C@H](NC(=O)c2c(Cl)cc(C(=O)O)cc2Cl)C(=O)O)cc1` [Compound 1223, 4-{[(1S)-1-carboxy-2-{4-[4-(2-hydroxypropan-2-yl)-2,6-dimethoxyphenyl]phenyl}ethyl]carbamoyl}-3,5-dichlorobenzoic acid], the IC50 (Table 8) stood at 70 nM.

With `COCCOCc1cc(OC)c(-c2ccc(C[C@H](NC(=O)[C@@H]3CCN3S(=O)(=O)c3ccccc3)C(=O)O)cc2)c(OC)c1` [Compound 1745, (S)-3-(2′,6′-dimethoxy-4′-((2-methoxyethoxy)methyl)-[1,1′-biphenyl]-4-yl)-2-((S)-1-(phenylsulfonyl)azetidine-2-carboxamido)propanoic acid], under “Table 8”, the IC50 worked out at 3.7 nM.

As for `CCOCc1cc(OC)c(-c2ccc(C[C@H](NC(=O)[C@]3(C)CCCN3S(=O)(=O)c3ccccc3)C(=O)O)cc2)c(OC)c1` [Cmpd 34, (S)-3-(4′-(ethoxymethyl)-2′,6′-dimethoxy-[1,1′-biphenyl]-4-yl)-2-((S)-2-methyl-1-(phenylsulfonyl)pyrrolidine-2-carboxamido)propanoic acid], the IC50 (Table 12) came to 11.7 nM.

For the compound `COCCOCc1cc(OC)c(-c2ccc(C[C@H](NC(=O)[C@@H]3CCN3S(=O)(=O)c3cc(Cl)cc(Cl)c3)C(=O)O)cc2)c(OC)c1` [Compound 1746, (S)-2-((S)-1-((3,5-dichlorophenyl)sulfonyl)azetidine-2-carboxamido)-3-(2′,6′-dimethoxy-4′-((2-methoxyethoxy)methyl)-[1,1′-biphenyl]-4-yl)propanoic acid], the “inhibition of sVCAM-1 binding compared with other inhibitors” value is on record as “inhibition was greatest”. Where the note is “Table 8”, the IC50 amounted to 3.79 nM.

Regarding `CCOCc1cc(OC)c(-c2ccc(C[C@H](NC(=O)c3c(Cl)cc(C(=O)O)cc3Cl)C(=O)O)cc2)c(OC)c1` [Compound 1221, 4-{[(1S)-1-carboxy-2-{4-[4-(ethoxymethyl)-2,6-dimethoxyphenyl]phenyl}ethyl]carbamoyl}-3,5-dichlorobenzoic acid], the “inhibition of sVCAM-1 binding compared with other inhibitors” value is given as “more potent inhibitors than 823”. Also, the IC50 (Table 8) came out at 0.58 nM.

With `COc1cc(C(N)=O)cc(OC)c1-c1ccc(C[C@H](NC(=O)c2c(Cl)cc(C(=O)O)cc2Cl)C(=O)O)cc1` [Cmpd 21, 4-{[(1S)-2-[4-(4-carbamoyl-2,6-dimethoxyphenyl)phenyl]-1-carboxyethyl]carbamoyl}-3,5-dichlorobenzoic acid], the IC50 (Table 12) is 72 nM.

For `COc1cccc(N2CCC[C@H]2C(=O)N[C@@H](Cc2ccc(-c3c(OC)cccc3OC)cc2)C(=O)O)c1` [Compound 822], the IC50 (Table 10) worked out at 69 nM.

`COc1cc(CF)cc(OC)c1-c1ccc(C[C@H](NC(=O)c2c(Cl)cc(C(=O)O)cc2Cl)C(=O)O)cc1` [Cmpd 26, 4-{[(1S)-1-carboxy-2-{4-[4-(fluoromethyl)-2,6-dimethoxyphenyl]phenyl}ethyl]carbamoyl}-3,5-dichlorobenzoic acid]: under “Table 12”, the IC50 amounted to 1.57 nM.

For `COc1cc(COC2COC2)cc(OC)c1-c1ccc(C[C@H](NC(=O)[C@@H]2CCCN2S(=O)(=O)c2cc(Cl)cc(Cl)c2)C(=O)O)cc1` [Compound 009], where the note is “Table 10”, the IC50 was 4.47 nM.

Consider `COc1cccc(OC)c1-c1ccc(C[C@H](NC(=O)c2c(Cl)cccc2Cl)C(=O)O)cc1C(C)O` (some centres unmarked) [Compound 1632], for which the “inhibition … compared with Firategrast” value is listed as “significantly more potent than Firategrast”. Further, the IC50 (Table 10) was determined as 10 nM.

The values are drawn from patent publication US20190328706A1, “COMPOSITIONS COMPRISING AN INTEGRIN INHIBITOR AND AGENTS WHICH INTERACT WITH A CHEMOKINE AND METHODS OF USE THEREOF” (Saint Louis University, priority 2016, published 2019).
